Test results as given in patent publication US20260070895A1, “CRYSTALLINE FORMS” (QUIMATRYX, S.L., priority 2022, published 2026).
Entries after “also recorded” stand apart in the source; their conditions may differ.

Experiment: Photostability at solid state (chemical purity by HPLC after illumination)
Format: physicochemical
Conditions: for HPLC peak area, QTX125 RRT 1.00 / HPLC peak area, RRT 1.04 / degradation (in words) / HPLC peak area, RRT 1.12 / colour change of the solid material / HPLC peak area, RRT 1.08 / HPLC peak area, RRT 1.11 / HPLC peak area, RRT 1.20: solid-state; for degradation (in words): up to 171 hours
Experimental: The method for determining purity by HPLC—used throughout these examples—used the following parameters:
The photostability of novel crystalline forms of QTX125 was assessed at solid state and in solution. Where ‘forced illumination’ conditions were used, samples were illuminated at 12 Klux/hour and 2.8 UV W/m^2/hour. Samples were stored at a temperature of 30° C. Following incubation, the chemical purity of QTX125 was measured by HPLC.
The following index is provided to aid navigation of the data presented in Tables 3.1.1 to 3.3.6: • 3.1.x—Assessment of the photostability of QTX125 Form 2. • 3.2.x—Assessment of the photostability of amorphous QTX125. • 3.3.x—Assessment of the photostability of the QTX125 1:2 L-Lysine adduct. • 3.x.1—Samples (at solid state) stored in unsealed clear glass bottles, subject to forced illumination. • 3.x.2—Samples (at solid state) sealed under nitrogen in clear glass bottles, subject to forced illumination. • 3.x.3—Samples (at solid state) sealed under nitrogen in amber glass bottles, illuminated under ambient laboratory conditions • 3.x.4—Samples (at solid state) sealed under nitrogen in amber glass bottles, subject to forced illumination. • 3.x.5—Samples (in solution) sealed under nitrogen in amber glass bottles, illuminated under ambient laboratory conditions. • 3.x.6—Samples (in solution) sealed under nitrogen in amber glass bottles, subject to forced illumination.

[1] = sealed under nitrogen in amber glass bottles, ambient laboratory conditions, 0 hours
[2] = sealed under nitrogen in amber glass bottles, ambient laboratory conditions, 3 hours
[3] = sealed under nitrogen in amber glass bottles, ambient laboratory conditions, 26 hours
[4] = sealed under nitrogen in amber glass bottles, ambient laboratory conditions, 74 hours
[5] = sealed under nitrogen in amber glass bottles, ambient laboratory conditions, 171 hours
[6] = sealed under nitrogen in amber glass bottles, ambient laboratory conditions, 171 hours, listed as Form 2
[7] = sealed under nitrogen in amber glass bottles, forced illumination, 0 hours
[8] = sealed under nitrogen in amber glass bottles, forced illumination, 3 hours
[9] = sealed under nitrogen in amber glass bottles, forced illumination, 26 hours
[10] = sealed under nitrogen in amber glass bottles, forced illumination, 74 hours
[11] = sealed under nitrogen in amber glass bottles, forced illumination, 171 hours
[12] = sealed under nitrogen in amber glass bottles, forced illumination, 171 hours, listed as Form 2
[13] = sealed under nitrogen in clear glass bottles, forced illumination
[14] = sealed under nitrogen in clear glass bottles, forced illumination, 0 hours
[15] = sealed under nitrogen in clear glass bottles, forced illumination, 3 hours
[16] = sealed under nitrogen in clear glass bottles, forced illumination, 26 hours
[17] = sealed under nitrogen in clear glass bottles, forced illumination, 74 hours
[18] = sealed under nitrogen in clear glass bottles, forced illumination, 171 hours
[19] = unsealed clear glass bottles, forced illumination, 0 hours
[20] = unsealed clear glass bottles, forced illumination, 3 hours
[21] = unsealed clear glass bottles, forced illumination, 26 hours
[22] = unsealed clear glass bottles, forced illumination, 74 hours

## O=C(NO)c1ccc(CNC(=O)c2[nH]c(-c3ccc(O)cc3)cc2-c2ccoc2)cc1 [QTX125 Form 2, 3-(3-Furyl)-N-{4-[(hydroxyamino)carbonyl]benzyl}-5-(4-hydroxyphenyl)-1H-pyrrole-2-carboxamide]
At solid state
  photostability as compared to amorphous QTX125: enhanced photostability; also recorded: improved photostability
[1]
  HPLC peak area, QTX125 RRT 1.00: 98.21%
  HPLC peak area, RRT 1.04: 0.98%
[2]
  HPLC peak area, QTX125 RRT 1.00: 97.35%
  HPLC peak area, RRT 1.04: 1.06%
[3]
  HPLC peak area, QTX125 RRT 1.00: 98.11%
  HPLC peak area, RRT 1.04: 1.07%
[4]
  HPLC peak area, QTX125 RRT 1.00: 98.83%
  HPLC peak area, RRT 1.04: 0.55%
[5]
  HPLC peak area, QTX125 RRT 1.00: 98.12%
  HPLC peak area, RRT 1.04: 1.21%
[6]
  HPLC peak area, QTX125 RRT 1.00: 98.12%
  HPLC peak area, RRT 1.04: 1.21%
Sealed under nitrogen in amber glass bottles, ambient laboratory conditions
  degradation (in words): little evidence of degradation
[7]
  HPLC peak area, QTX125 RRT 1.00: 98.21%
  HPLC peak area, RRT 1.04: 0.98%
[8]
  HPLC peak area, QTX125 RRT 1.00: 98.23%
  HPLC peak area, RRT 1.04: 0.99%
[9]
  HPLC peak area, QTX125 RRT 1.00: 97.82%
  HPLC peak area, RRT 1.04: 1.22%
[10]
  HPLC peak area, QTX125 RRT 1.00: 97.70%
  HPLC peak area, RRT 1.04: 1.06%
[11]
  HPLC peak area, QTX125 RRT 1.00: 95.40%
  HPLC peak area, RRT 1.04: 2.55%
  HPLC peak area, RRT 1.12: 0.28%
[12]
  HPLC peak area, QTX125 RRT 1.00: 95.40%
  HPLC peak area, RRT 1.04: 2.55%
  HPLC peak area, RRT 1.12: 0.28%
Sealed under nitrogen in amber glass bottles, forced illumination
  degradation (in words): degrade slightly
[13]
  colour change of the solid material: change in colour from off white to dark green
  degradation (in words): degrade to two principal components
[14]
  HPLC peak area, QTX125 RRT 1.00: 98.21%
  HPLC peak area, RRT 1.04: 0.98%
[15]
  HPLC peak area, QTX125 RRT 1.00: 97.78%
  HPLC peak area, RRT 1.04: 1.29%
[16]
  HPLC peak area, QTX125 RRT 1.00: 96.16%
  HPLC peak area, RRT 1.04: 2.16%
[17]
  HPLC peak area, QTX125 RRT 1.00: 84.98%
  HPLC peak area, RRT 1.04: 5.99%
  HPLC peak area, RRT 1.08: 1.24%
  HPLC peak area, RRT 1.11: 0.52%
  HPLC peak area, RRT 1.20: 0.66%
[18]
  HPLC peak area, QTX125 RRT 1.00: 82.33%
  HPLC peak area, RRT 1.04: 9.95%
  HPLC peak area, RRT 1.08: 0.41%
  HPLC peak area, RRT 1.11: 0.86%
  HPLC peak area, RRT 1.20: 0.22%
Unsealed clear glass bottles, forced illumination
  colour change of the solid material: change in colour from off white to dark green
[19]
  HPLC peak area, QTX125 RRT 1.00: 98.21%
  HPLC peak area, RRT 1.04: 0.98%
[20]
  HPLC peak area, QTX125 RRT 1.00: 97.68%
  HPLC peak area, RRT 1.04: 1.38%
[21]
  HPLC peak area, QTX125 RRT 1.00: 95.59%
  HPLC peak area, RRT 1.04: 2.38%
[22]
  HPLC peak area, QTX125 RRT 1.00: 90.53%
  HPLC peak area, RRT 1.04: 4.90%
Unsealed clear glass bottles, forced illumination, 171 hours
  HPLC peak area, QTX125 RRT 1.00: 83.78%
